Source: US20060276537A1, “Use of ladostigil for the treatment of multiple sclerosis” (priority 2005, published 2006)
Where two headings read alike, the source gives them in different places. Marks after values point to notes of the source that are not given here.

Legend:
[1] = test system: acetylcholinesterase (AChE); experiment: Cholinesterase assay (modified Ellman, ATC substrate) in brain and blood of treated EAE mice; format: in vivo; settings: for Blood AChE U/ml / Blood AchE % inhibition: blood of EAE mice; for Brain AChE U/g (Total ChE) / Brain AchE % inhibition: brain of EAE mice
Protocol: (§1) From the mice of Example 2, acetylcholinesterase (AChE) and butyrylcholinesterase (BChE) activities were determined by a modification of Ellman's spectophotometric method using acetyltiocholine (ATC) and butyryltiocholine (BTC) as substrates.
(§2) Homogenate of 100 mg brain tissue in 1 ml 100 mM phosphate buffer pH=8.0 was prepared. 0.4 ml of crude homogenate was added to 1.2 ml pre-warmed 4 mM 5,5′-Dithiobis(2-nitrobenzoic acid) (DTNB or Ellman's reagant); 30 μl from this mixture were added to 210 μl pre-warmed (28° C.) 50 mM phosphate buffer in a microplate; and the reaction was started by addition of 10 μl ATC or BTC (final concentration=1 mM) or water (for the blank reaction) The increase in optical density (OD) at 412 nm was monitored for 3 minutes and the slope of the straight line obtained by linear regression provided the activity in terms of ΔOD/min using SOFTMAX® software. Blank reaction was subtracted.
(§3) Conversion of ΔOD/min into Enzyme Activity was Performed as Follows: Unit enzyme/gram tissue=OD/min*0.25/10.54*4*1000/30*11
(§4) The same procedure was performed as with brain homogenate using 50 μl of ¼ hemolysate/DTNB mixture.
(§5) Enzyme activity in the blood was calculated in units/1 ml whole blood.
AChE activity was calculated as follows: AChE activity=ΔOD/min (determined with ATC)−ΔOD/min (determined with BTC)/0.7
0.7=BChE activity on BTC/BChE activity on ATC. It was determined by using 1.25-10^−6M BW281C51 to inhibit AChE and with ATC and BTC as substrates.

[2] = target: T1, butyrylcholinesterase (BChE) (Mus musculus, UniProt Q03311); experiment: Cholinesterase assay (modified Ellman, BTC substrate) in brain and blood of treated EAE mice; format: in vivo; settings: for Brain BuChE U/g: results on the limit of assay sensitivity; for inhibition at 10.2 mg/kg / inhibition at 25.5 mg/kg / inhibition at 51 mg/kg / inhibition at 70.1 mg/kg: mouse
T1 construct: Homogenate of 100 mg brain tissue in 1 ml 100 mM phosphate buffer pH=8.0 was prepared; from tissue; host or cells: brain homogenate and blood hemolysate of ladostigil-treated EAE mice
Protocol: as §1, §2, §3, §4, §5
BuChE activity was calculated directly from the ΔOD/min of BTC.

[3] = 51 and 70.1 mg/kg/day, doses effective in ameliorating EAE

T1 sequence (Q03311 30-603): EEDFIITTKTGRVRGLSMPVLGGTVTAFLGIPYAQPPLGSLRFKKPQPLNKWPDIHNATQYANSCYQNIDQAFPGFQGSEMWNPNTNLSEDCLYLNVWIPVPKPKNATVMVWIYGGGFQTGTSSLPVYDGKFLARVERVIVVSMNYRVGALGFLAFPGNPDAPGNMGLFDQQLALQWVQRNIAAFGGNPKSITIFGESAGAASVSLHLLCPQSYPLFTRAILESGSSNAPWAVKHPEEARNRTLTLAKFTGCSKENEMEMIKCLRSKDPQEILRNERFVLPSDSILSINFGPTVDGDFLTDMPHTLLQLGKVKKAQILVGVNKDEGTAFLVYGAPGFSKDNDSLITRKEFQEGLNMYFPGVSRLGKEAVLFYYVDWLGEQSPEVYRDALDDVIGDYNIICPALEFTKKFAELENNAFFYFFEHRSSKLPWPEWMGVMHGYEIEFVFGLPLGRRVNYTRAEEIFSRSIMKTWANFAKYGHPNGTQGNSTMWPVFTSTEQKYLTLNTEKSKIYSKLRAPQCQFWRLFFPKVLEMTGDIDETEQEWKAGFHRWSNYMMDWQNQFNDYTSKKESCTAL

C#CCN[C@@H]1CCc2ccc(OC(=O)N(C)CC)cc21 [Ladostigil, R(+)-6-(N-methyl,N-ethyl-carbamoyloxy)-N′-propargyl-1-aminoindan]
inhibition of AChE in blood [1, 3]: 60-65%
inhibition of AChE in brain [1, 3]: 47-52%
Blood AChE U/ml ([1]; 10.2 mg/kg salt): 0.85 +/− 0.17 U/ml
Blood AchE % inhibition ([1]; 10.2 mg/kg salt): 37.4* %
Blood AChE U/ml ([1]; 25.5 mg/kg salt): 0.73 +/− 0.12 U/ml
Blood AchE % inhibition ([1]; 25.5 mg/kg salt): 46.3* %
Blood AChE U/ml ([1]; 51 mg/kg salt): 0.54 +/− 0.1 U/ml
Blood AchE % inhibition ([1]; 51 mg/kg salt): 60.2* %
Blood AChE U/ml ([1]; 70.1 mg/kg salt): 0.48 +/− 0.1 U/ml
Blood AchE % inhibition ([1]; 70.1 mg/kg salt): 64.9* %
Brain AChE U/g (Total ChE) ([1]; 10.2 mg/kg salt): 8.77 +/− 1.23 U/g
Brain AchE % inhibition ([1]; 10.2 mg/kg salt): 13.4%
Brain AChE U/g (Total ChE) ([1]; 25.5 mg/kg salt): 7.42 +/− 1.29 U/g
Brain AchE % inhibition ([1]; 25.5 mg/kg salt): 26.8* %
Brain AChE U/g (Total ChE) ([1]; 51 mg/kg salt): 5.41 +/− 0.6 U/g
Brain AchE % inhibition ([1]; 51 mg/kg salt): 46.6* %
Brain AChE U/g (Total ChE) ([1]; 70.1 mg/kg salt): 4.85 +/− 0.65 U/g
Brain AchE % inhibition ([1]; 70.1 mg/kg salt): 52.2* %
BChE inhibition ([2]; 51 and 70.1 mg/kg/day, brain and blood): 35-42%
Blood BuChE U/ml ([2]; blood of EAE mice, 10.2 mg/kg salt): 1.52 +/− 0.24 U/ml
Blood BuChE U/ml ([2]; blood of EAE mice, 25.5 mg/kg salt): 1.47 +/− 0.18 U/ml
Blood BuChE U/ml ([2]; blood of EAE mice, 51 mg/kg salt): 1.06 +/− 0.21 U/ml
Blood BuChE U/ml ([2]; blood of EAE mice, 70.1 mg/kg salt): 1.01 +/− 0.18 U/ml
Brain BuChE U/g ([2]; brain of EAE mice, 10.2 mg/kg salt): 0.35 +/− 0.04 U/g
Brain BuChE U/g ([2]; brain of EAE mice, 25.5 mg/kg salt): 0.31 +/− 0.04 U/g
Brain BuChE U/g ([2]; brain of EAE mice, 51 mg/kg salt): 0.22 +/− 0.03 U/g
Brain BuChE U/g ([2]; brain of EAE mice, 70.1 mg/kg salt): 0.25 +/− 0.06 U/g
inhibition at 10.2 mg/kg ([2]; blood of EAE mice, 10.2 mg/kg salt, read-out: Blood BchE % inhibition): 6.7%
inhibition at 25.5 mg/kg ([2]; blood of EAE mice, 25.5 mg/kg salt, read-out: Blood BchE % inhibition): 10.1%
inhibition at 51 mg/kg ([2]; blood of EAE mice, 51 mg/kg salt, read-out: Blood BchE % inhibition): 35.3%
inhibition at 70.1 mg/kg ([2]; blood of EAE mice, 70.1 mg/kg salt, read-out: Blood BchE % inhibition): 38.4%
inhibition at 10.2 mg/kg ([2]; brain of EAE mice, 10.2 mg/kg salt, read-out: Brain BchE % inhibition): 7.9%
inhibition at 25.5 mg/kg ([2]; brain of EAE mice, 25.5 mg/kg salt, read-out: Brain BchE % inhibition): 18.4%
inhibition at 51 mg/kg ([2]; brain of EAE mice, 51 mg/kg salt, read-out: Brain BchE % inhibition): 42.1%
inhibition at 70.1 mg/kg ([2]; brain of EAE mice, 70.1 mg/kg salt, read-out: Brain BchE % inhibition): 34.2%
